Measurements taken from the CheMixHub viscosity set.

Assay: xn = mol fraction of the nth substance listed
Settings: 101 kPa

Brc1ccccc1 + Cc1cccc(C)c1
Settings	viscosity [mPa·s]
293.15 K, x1 = 0.112	0.626
293.15 K, x1 = 0.2214	0.677
293.15 K, x1 = 0.3339	0.723
293.15 K, x1 = 0.5406	0.818
293.15 K, x1 = 0.6754	0.89
293.15 K, x1 = 0.7672	0.936
293.15 K, x1 = 0.848	0.978
293.15 K, x1 = 0.9095	1.01
298.15 K, x1 = 0.11	0.592
298.15 K, x1 = 0.2179	0.635
298.15 K, x1 = 0.3324	0.685
298.15 K, x1 = 0.4083	0.715
298.15 K, x1 = 0.5319	0.768
298.15 K, x1 = 0.6412	0.819
298.15 K, x1 = 0.7163	0.853
298.15 K, x1 = 0.866	0.927
303.15 K, x1 = 0.1106	0.555
303.15 K, x1 = 0.2212	0.592
303.15 K, x1 = 0.3352	0.639
303.15 K, x1 = 0.414	0.67
303.15 K, x1 = 0.5251	0.712
303.15 K, x1 = 0.6553	0.767
303.15 K, x1 = 0.765	0.815
303.15 K, x1 = 0.8807	0.866

C1COCCO1 + CC#N
viscosity [mPa·s]
Settings	x2 = 0.1926	x2 = 0.3492	x2 = 0.4791	x2 = 0.5886	x2 = 0.6822	x2 = 0.763	x2 = 0.8336	x2 = 0.8957	x2 = 0.9508
298.15 K	0.9468	0.772	0.6349	0.5315	0.4573	0.4099	0.3679	0.3482	0.3389
308.15 K	0.8244	0.6862	0.5802	0.503	0.4477	0.4079	0.3775	0.3531	0.334
318.15 K	0.7189	0.5994	0.5014	0.4305	0.3854	0.3542	0.3354	0.3194	0.3076
